Measurements published in article PMC4620497 (Scientific Reports, 2015).
pIC50, pKd: −log10 of the molar value. Read-outs that look alike come from different tables or passages of the source.

How the values were obtained:
[1] = target: T1, ABL1(F317I)-nonphosphorylated (Homo sapiens, UniProt P00519, F317I); assay: KINOMEscan panel screen; format: binding; conditions: read-out: Percent Control(%)
T1 construct: purchased DiscoveRx KINOMEscan (Ambit Biosciences)

[2] = target: T2, ABL1(F317I)-phosphorylated (Homo sapiens, UniProt P00519, F317I); assay: KINOMEscan panel screen; format: binding; conditions: read-out: Percent Control(%)
T2 construct: purchased DiscoveRx KINOMEscan (Ambit Biosciences)

[3] = target: T3, ABL1(H396P)-phosphorylated (Homo sapiens, UniProt P00519, H396P); assay: KINOMEscan panel screen; format: binding; conditions: read-out: Percent Control(%)
T3 construct: purchased DiscoveRx KINOMEscan (Ambit Biosciences)

[4] = target: T4, ABL1-nonphosphorylated (Homo sapiens, UniProt P00519); assay: KINOMEscan panel screen; format: binding; conditions: read-out: Percent Control(%)
T4 construct: purchased DiscoveRx KINOMEscan (Ambit Biosciences)

[5] = target: T5, AURKB (Homo sapiens, UniProt Q96GD4); assay: KINOMEscan panel screen; format: binding; conditions: read-out: Percent Control(%)
T5 construct: purchased DiscoveRx KINOMEscan (Ambit Biosciences)

[6] = target: T6, CAMK2G (Homo sapiens, UniProt Q13555); assay: KINOMEscan panel screen; format: binding; conditions: read-out: Percent Control(%)
T6 construct: purchased DiscoveRx KINOMEscan (Ambit Biosciences)
T6 sequence (Q13555 whole entry): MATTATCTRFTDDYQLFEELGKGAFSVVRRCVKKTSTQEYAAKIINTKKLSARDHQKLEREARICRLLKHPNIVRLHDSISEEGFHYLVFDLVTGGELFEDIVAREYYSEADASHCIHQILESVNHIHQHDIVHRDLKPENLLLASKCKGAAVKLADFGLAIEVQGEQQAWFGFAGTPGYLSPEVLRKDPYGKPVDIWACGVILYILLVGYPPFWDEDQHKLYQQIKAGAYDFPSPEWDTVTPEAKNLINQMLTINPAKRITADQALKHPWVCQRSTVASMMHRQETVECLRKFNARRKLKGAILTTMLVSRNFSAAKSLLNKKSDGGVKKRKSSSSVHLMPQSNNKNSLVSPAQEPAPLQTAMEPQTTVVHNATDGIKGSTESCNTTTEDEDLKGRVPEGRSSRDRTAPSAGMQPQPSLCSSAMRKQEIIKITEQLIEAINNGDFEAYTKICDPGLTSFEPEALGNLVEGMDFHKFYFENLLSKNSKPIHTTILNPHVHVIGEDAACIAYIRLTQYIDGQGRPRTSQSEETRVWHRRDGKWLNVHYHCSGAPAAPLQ

[7] = target: T7, DAPK2 (Homo sapiens, UniProt Q9UIK4); assay: KINOMEscan panel screen; format: binding; conditions: read-out: Percent Control(%)
T7 construct: purchased DiscoveRx KINOMEscan (Ambit Biosciences)

[8] = target: T8, DRAK2 (Homo sapiens, UniProt O94768); assay: KINOMEscan panel screen; format: binding; conditions: read-out: Percent Control(%)
T8 construct: purchased DiscoveRx KINOMEscan (Ambit Biosciences)
T8 sequence (O94768 whole entry): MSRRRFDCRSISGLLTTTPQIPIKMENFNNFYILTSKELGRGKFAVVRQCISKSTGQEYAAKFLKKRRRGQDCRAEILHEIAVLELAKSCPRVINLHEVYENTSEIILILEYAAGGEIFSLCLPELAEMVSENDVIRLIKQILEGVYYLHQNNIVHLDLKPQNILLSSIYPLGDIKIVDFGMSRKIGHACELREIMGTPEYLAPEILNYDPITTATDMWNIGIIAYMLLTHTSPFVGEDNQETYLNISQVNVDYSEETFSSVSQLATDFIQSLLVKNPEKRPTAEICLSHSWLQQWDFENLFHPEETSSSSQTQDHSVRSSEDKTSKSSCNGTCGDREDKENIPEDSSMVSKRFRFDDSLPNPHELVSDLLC

[9] = target: T9, EPHB3 (Homo sapiens, UniProt P54753); assay: KINOMEscan panel screen; format: binding; conditions: read-out: Percent Control(%)
T9 construct: purchased DiscoveRx KINOMEscan (Ambit Biosciences)

[10] = target: T10, ERBB3 (Homo sapiens, UniProt P21860); assay: KINOMEscan panel screen; format: binding; conditions: read-out: Percent Control(%)
T10 construct: purchased DiscoveRx KINOMEscan (Ambit Biosciences)

[11] = target: T11, HCK (Homo sapiens, UniProt P08631); assay: KINOMEscan panel screen; format: binding; conditions: read-out: Percent Control(%)
T11 construct: purchased DiscoveRx KINOMEscan (Ambit Biosciences)

[12] = target: T12, INSRR (Homo sapiens, UniProt P14616); assay: KINOMEscan panel screen; format: binding; conditions: read-out: Percent Control(%)
T12 construct: purchased DiscoveRx KINOMEscan (Ambit Biosciences)

[13] = target: T13, JNK2 (Homo sapiens, UniProt P45984); assay: KINOMEscan panel screen; format: binding; conditions: read-out: Percent Control(%)
T13 construct: purchased DiscoveRx KINOMEscan (Ambit Biosciences)

[14] = target: T14, KIT(V559D,V654A) (Homo sapiens, UniProt P10721, V559D/V654A); assay: KINOMEscan panel screen; format: binding; conditions: read-out: Percent Control(%)
T14 construct: purchased DiscoveRx KINOMEscan (Ambit Biosciences)
T14 sequence (P10721 26-976 V559D/V654A): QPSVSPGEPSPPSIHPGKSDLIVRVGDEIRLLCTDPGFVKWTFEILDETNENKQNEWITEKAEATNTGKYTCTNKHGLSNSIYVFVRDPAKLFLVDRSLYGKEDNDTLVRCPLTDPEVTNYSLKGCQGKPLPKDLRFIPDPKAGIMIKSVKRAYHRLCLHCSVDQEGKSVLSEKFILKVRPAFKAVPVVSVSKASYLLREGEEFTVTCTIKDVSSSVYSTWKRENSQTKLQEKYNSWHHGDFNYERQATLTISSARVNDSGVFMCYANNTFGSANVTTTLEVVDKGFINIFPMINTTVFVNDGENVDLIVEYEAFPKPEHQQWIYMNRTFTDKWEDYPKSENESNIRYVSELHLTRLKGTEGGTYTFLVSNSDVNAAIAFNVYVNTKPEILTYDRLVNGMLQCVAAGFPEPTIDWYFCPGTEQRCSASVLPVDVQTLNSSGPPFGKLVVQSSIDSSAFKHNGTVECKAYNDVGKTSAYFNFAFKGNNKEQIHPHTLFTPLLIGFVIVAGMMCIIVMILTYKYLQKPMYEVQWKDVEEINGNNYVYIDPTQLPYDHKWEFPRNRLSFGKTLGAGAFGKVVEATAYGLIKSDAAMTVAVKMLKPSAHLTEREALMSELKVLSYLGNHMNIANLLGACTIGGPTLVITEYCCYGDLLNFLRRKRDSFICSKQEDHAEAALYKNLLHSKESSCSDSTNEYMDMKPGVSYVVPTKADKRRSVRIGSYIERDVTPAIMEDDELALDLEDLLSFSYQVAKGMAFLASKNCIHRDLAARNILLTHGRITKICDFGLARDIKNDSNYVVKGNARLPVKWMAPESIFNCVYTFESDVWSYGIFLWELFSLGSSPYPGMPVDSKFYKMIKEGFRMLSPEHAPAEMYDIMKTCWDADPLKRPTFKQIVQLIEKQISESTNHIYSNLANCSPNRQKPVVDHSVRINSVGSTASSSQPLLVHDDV

[15] = target: T15, MAST1 (Homo sapiens, UniProt Q9Y2H9); assay: KINOMEscan panel screen; format: binding; conditions: read-out: Percent Control(%)
T15 construct: purchased DiscoveRx KINOMEscan (Ambit Biosciences)

[16] = target: T16, MRCKA (Homo sapiens, UniProt Q5VT25); assay: KINOMEscan panel screen; format: binding; conditions: read-out: Percent Control(%)
T16 construct: purchased DiscoveRx KINOMEscan (Ambit Biosciences)

[17] = target: T17, MRCKB (Homo sapiens, UniProt Q9Y5S2); assay: KINOMEscan panel screen; format: binding; conditions: read-out: Percent Control(%)
T17 construct: purchased DiscoveRx KINOMEscan (Ambit Biosciences)

[18] = target: T18, MST1 (Homo sapiens, UniProt Q13043); assay: KINOMEscan panel screen; format: binding; conditions: read-out: Percent Control(%)
T18 construct: purchased DiscoveRx KINOMEscan (Ambit Biosciences)

[19] = target: T19, MYLK2 (Homo sapiens, UniProt Q9H1R3); assay: KINOMEscan panel screen; format: binding; conditions: read-out: Percent Control(%)
T19 construct: purchased DiscoveRx KINOMEscan (Ambit Biosciences)

[20] = target: T20, PIK3CA(H1047L) (Homo sapiens, UniProt P42336, H1047L); assay: KINOMEscan panel screen; format: binding; conditions: read-out: Percent Control(%)
T20 construct: purchased DiscoveRx KINOMEscan (Ambit Biosciences)

[21] = target: T21, PLK3 (Homo sapiens, UniProt Q9H4B4); assay: KINOMEscan panel screen; format: binding; conditions: read-out: Percent Control(%)
T21 construct: purchased DiscoveRx KINOMEscan (Ambit Biosciences)

[22] = target: T22, RET(V804L) (Homo sapiens, UniProt P07949, V804L); assay: KINOMEscan panel screen; format: binding; conditions: read-out: Percent Control(%)
T22 construct: purchased DiscoveRx KINOMEscan (Ambit Biosciences)
T22 sequence (P07949 29-1114 V804L): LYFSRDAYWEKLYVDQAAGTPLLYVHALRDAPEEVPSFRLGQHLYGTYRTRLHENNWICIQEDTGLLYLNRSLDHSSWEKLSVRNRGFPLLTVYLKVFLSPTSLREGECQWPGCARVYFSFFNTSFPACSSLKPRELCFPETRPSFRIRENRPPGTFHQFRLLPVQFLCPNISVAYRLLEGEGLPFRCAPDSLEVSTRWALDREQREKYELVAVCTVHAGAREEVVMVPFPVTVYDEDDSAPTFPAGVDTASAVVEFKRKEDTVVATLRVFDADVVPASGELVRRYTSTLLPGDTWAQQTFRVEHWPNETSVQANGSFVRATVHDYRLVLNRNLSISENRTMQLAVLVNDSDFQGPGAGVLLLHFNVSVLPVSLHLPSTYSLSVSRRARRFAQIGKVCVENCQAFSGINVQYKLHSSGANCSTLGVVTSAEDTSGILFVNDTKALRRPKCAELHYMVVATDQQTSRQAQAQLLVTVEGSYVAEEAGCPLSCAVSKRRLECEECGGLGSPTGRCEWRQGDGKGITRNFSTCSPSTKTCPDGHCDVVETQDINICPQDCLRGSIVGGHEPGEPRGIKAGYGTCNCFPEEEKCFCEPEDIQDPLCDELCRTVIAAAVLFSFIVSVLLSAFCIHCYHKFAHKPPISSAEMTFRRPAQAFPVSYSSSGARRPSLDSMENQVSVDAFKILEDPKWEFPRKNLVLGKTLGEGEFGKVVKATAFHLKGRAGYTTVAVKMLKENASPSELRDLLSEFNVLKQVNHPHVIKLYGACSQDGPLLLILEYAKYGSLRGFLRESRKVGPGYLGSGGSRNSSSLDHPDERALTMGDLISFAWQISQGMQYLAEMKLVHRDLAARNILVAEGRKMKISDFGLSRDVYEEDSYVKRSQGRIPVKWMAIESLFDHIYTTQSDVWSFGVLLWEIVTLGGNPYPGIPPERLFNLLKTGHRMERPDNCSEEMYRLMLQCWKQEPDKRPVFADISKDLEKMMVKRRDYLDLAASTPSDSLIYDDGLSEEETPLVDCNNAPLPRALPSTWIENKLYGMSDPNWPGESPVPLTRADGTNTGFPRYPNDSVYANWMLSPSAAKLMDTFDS

[23] = target: T23, RIOK3 (Homo sapiens, UniProt O14730); assay: KINOMEscan panel screen; format: binding; conditions: read-out: Percent Control(%)
T23 construct: purchased DiscoveRx KINOMEscan (Ambit Biosciences)
T23 sequence (O14730 whole entry): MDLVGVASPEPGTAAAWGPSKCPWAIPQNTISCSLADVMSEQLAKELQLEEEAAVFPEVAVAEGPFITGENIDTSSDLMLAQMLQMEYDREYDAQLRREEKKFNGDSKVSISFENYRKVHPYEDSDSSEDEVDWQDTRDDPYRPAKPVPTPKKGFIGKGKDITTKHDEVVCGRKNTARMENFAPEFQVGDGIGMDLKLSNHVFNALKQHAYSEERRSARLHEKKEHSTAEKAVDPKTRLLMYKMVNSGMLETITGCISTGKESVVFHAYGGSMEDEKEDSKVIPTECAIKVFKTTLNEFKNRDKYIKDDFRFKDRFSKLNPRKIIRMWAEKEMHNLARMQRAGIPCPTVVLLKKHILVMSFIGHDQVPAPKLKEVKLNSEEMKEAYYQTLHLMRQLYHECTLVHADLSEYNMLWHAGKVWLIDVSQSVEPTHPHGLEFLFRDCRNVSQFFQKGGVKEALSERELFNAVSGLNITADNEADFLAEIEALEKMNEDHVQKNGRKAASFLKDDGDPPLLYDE

[24] = target: T24, TESK1 (Homo sapiens, UniProt Q15569); assay: KINOMEscan panel screen; format: binding; conditions: read-out: Percent Control(%)
T24 construct: purchased DiscoveRx KINOMEscan (Ambit Biosciences)

[25] = target: T25, TSSK1B (Homo sapiens, UniProt Q9BXA7); assay: KINOMEscan panel screen; format: binding; conditions: read-out: Percent Control(%)
T25 construct: purchased DiscoveRx KINOMEscan (Ambit Biosciences)

[26] = target: T26, TYK2(JH1domain-catalytic) (Homo sapiens, UniProt P29597); assay: KINOMEscan panel screen; format: binding; conditions: read-out: Percent Control(%)
T26 construct: TYK2(JH1domain-catalytic); purchased DiscoveRx KINOMEscan (Ambit Biosciences)
T26 sequence (P29597 871-1187 limits assumed): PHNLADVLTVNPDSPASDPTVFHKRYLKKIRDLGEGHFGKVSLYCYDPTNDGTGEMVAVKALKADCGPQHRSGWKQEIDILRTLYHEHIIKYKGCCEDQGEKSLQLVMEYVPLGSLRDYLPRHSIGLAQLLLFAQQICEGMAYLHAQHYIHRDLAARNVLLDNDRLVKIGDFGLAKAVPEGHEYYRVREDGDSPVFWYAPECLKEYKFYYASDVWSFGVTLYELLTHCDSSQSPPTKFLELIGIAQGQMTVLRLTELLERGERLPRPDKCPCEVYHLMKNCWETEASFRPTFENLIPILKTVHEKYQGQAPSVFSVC

[27] = target: T27, ZAP70 (Homo sapiens, UniProt P43403); assay: KINOMEscan panel screen; format: binding; conditions: read-out: Percent Control(%)
T27 construct: purchased DiscoveRx KINOMEscan (Ambit Biosciences)
T27 sequence (P43403 whole entry): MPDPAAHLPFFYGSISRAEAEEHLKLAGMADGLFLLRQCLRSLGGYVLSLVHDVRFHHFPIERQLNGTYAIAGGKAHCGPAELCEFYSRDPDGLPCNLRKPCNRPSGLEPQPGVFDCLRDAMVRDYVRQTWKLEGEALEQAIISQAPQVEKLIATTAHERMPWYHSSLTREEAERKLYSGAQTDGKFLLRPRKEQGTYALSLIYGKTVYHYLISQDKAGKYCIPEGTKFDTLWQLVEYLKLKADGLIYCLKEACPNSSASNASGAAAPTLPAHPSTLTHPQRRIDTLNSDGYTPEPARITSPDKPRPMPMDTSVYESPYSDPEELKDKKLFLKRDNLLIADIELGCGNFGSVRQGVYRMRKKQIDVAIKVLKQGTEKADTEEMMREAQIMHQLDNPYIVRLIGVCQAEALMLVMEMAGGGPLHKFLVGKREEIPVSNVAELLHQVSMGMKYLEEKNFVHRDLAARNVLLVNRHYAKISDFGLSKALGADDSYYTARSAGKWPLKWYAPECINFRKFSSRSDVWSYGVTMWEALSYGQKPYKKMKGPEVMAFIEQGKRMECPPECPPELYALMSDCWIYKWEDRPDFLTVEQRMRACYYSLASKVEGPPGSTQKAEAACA

[28] = target: LCK (Homo sapiens, UniProt P06239); assay: KINOMEscan kinase binding assay (Kd)
LCK, sequence (P06239 whole entry): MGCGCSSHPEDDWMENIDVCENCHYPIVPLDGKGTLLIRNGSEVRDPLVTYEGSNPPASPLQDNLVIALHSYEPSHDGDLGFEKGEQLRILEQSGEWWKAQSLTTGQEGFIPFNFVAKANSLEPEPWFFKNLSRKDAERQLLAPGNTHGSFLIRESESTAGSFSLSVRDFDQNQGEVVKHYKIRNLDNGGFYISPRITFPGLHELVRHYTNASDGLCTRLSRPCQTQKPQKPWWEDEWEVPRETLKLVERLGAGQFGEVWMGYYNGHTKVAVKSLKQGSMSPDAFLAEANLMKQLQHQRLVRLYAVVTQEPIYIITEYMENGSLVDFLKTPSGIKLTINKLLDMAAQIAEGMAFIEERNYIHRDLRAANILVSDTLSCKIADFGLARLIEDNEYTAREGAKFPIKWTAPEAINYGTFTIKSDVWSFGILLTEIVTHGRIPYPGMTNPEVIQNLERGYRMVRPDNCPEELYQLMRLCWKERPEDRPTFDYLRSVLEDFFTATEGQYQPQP

[29] = target: T28, PLK2 (Homo sapiens, UniProt Q9NYY3); assay: KINOMEscan kinase binding assay (Kd)
T28 construct: purchased DiscoveRx KINOMEscan (Ambit Biosciences)

[30] = Pharmacokinetic assessment in rats; format: in vivo, SD rats; conditions: rat, mean; for Tmax / half-life / AUC(0-t) / Cmax / t1/2: 10 mg/kg; for AUC(0-t): read-out: AUC(0-36h)
Method: Preliminary pharmacokinetic characteristics of SKLB-677 were assessed on rats with SKLB-677 at a dose of 10 mg/kg P.O. and I.V. administration. The key pharmacokinetic parameters calculated are summarized in Supplementary Table S6.
SD rats (6 per group) were orally treated or injected intravenously with 10 mg/kg SKLB-677, followed by the collection of blood from the jugular vein into heparinized tubes at the appropriate times. The plasma was isolated by centrifugation. The plasma concentrations of SKLB-677 were determined using liquid–liquid extraction followed by high-performance liquid chromatography (HPLC) with tandem mass spectrometric detection. Noncompartmental pharmacokinetic parameters (AUC, Tmax, Cmax, and t1⁄2) were obtained from the blood concentration time profiles using DAS software.
Supplementary Table S6. The pharmacokinetic characteristics of SKLB-677. […]
standard deviation. t1/2: Mean half-life associat ed with the terminal slope and standard deviation.C max: Mean peak plasma concentration and standard deviation.
Tmax: Mean time to reach max imum plasma concentration and standard dev iation. CL:
Mean bod y clearance and standard deviation. Vss: Mean volume of distribution at steady state and standard deviation. The statistical anal ysis of data was shown as mean values and SD v alues (n= 6) .

[31] = tested on: KG-1; assay: MTT cell viability assay; conditions: Homo sapiens, KG-1, 72 h
[32] = tested on: A2058; assay: MTT cell viability assay; conditions: Homo sapiens, A2058, 72 h

Q: With `CC(C)(C)c1cc(NC(=O)Nc2ccc(Oc3ncnc4[nH]ncc34)c(F)c2)no1` [SKLB-677, 1-(4-(1H-pyrazolo[3,4-d]pyrimidin-4-yloxy)-3-fluorophenyl)-3-(5-tert-butylisoxazol-3-yl)urea] as the compound, how does the remaining binding at 10 µM [1] read?
A: 2.2%

Q: What about the remaining binding at 10 µM [2] of the same compound?
A: 43%

Q: And the remaining binding at 10 µM [3]?
A: 11%

Q: And the remaining binding at 10 µM [4]?
A: 1.2%

Q: And the remaining binding at 10 µM [5]?
A: 2.6%

Q: What about the remaining binding at 10 µM [6] of the same compound?
A: 66%

Q: What about the remaining binding at 10 µM [7] of the same compound?
A: 83%

Q: And the remaining binding at 10 µM [8]?
A: 78%

Q: And the remaining binding at 10 µM [9]?
A: 0.8%

Q: And the remaining binding at 10 µM [10]?
A: 98%

Q: What about the remaining binding at 10 µM [11] of the same compound?
A: 0.5%

Q: What about the remaining binding at 10 µM [12] of the same compound?
A: 42%

Q: What about the remaining binding at 10 µM [13] of the same compound?
A: 2%

Q: What about the remaining binding at 10 µM [14] of the same compound?
A: 1.8%

Q: And the remaining binding at 10 µM [15]?
A: 100%

Q: What about the remaining binding at 10 µM [16] of the same compound?
A: 100%

Q: What about the remaining binding at 10 µM [17] of the same compound?
A: 90%

Q: What about the remaining binding at 10 µM [18] of the same compound?
A: 28%

Q: And the remaining binding at 10 µM [19]?
A: 72%

Q: What about the remaining binding at 10 µM [20] of the same compound?
A: 84%

Q: What about the remaining binding at 10 µM [21] of the same compound?
A: 100%

Q: What about the remaining binding at 10 µM [22] of the same compound?
A: 0%

Q: What about the remaining binding at 10 µM [23] of the same compound?
A: 100%

Q: And the remaining binding at 10 µM [24]?
A: 82%

Q: And the remaining binding at 10 µM [25]?
A: 100%

Q: And the remaining binding at 10 µM [26]?
A: 44%

Q: And the remaining binding at 10 µM [27]?
A: 100%

Q: What about the pKd [28] of the same compound?
A: 6.89

Q: What about the pKd [29] of the same compound?
A: < 5.00

Q: What about the clearance ([30]; SD, plasma, iv, 10 mg/kg I.V.) of the same compound?
A: 0.617 mL/min/kg

Q: What about the Vd ([30]; SD, plasma, iv, 10 mg/kg I.V., read-out: Vss (apparent volume of distribution, Vd)) of the same compound?
A: 0.271 L/kg

Q: What about the Tmax ([30]; SD, plasma, iv, 10 mg/kg I.V.) of the same compound?
A: 0.033 h

Q: And the half-life ([30]; SD, plasma, iv, 10 mg/kg I.V.)?
A: 5.09 h

Q: And the AUC(0-t) ([30]; SD, plasma, iv, 10 mg/kg I.V.)?
A: 272 µg·h/mL

Q: What about the Cmax ([30]; SD, plasma, iv, 10 mg/kg I.V., read-out: Cmax) of the same compound?
A: 58200 ng/mL

Q: And the Tmax ([30]; SD, plasma, po, 10 mg/kg P.O.)?
A: 3 h

Q: What about the half-life ([30]; SD, plasma, po, 10 mg/kg P.O.) of the same compound?
A: 5.43 h

Q: And the AUC(0-t) ([30]; SD, plasma, po, 10 mg/kg P.O.)?
A: 176 µg·h/mL

Q: What about the Cmax ([30]; SD, plasma, po, 10 mg/kg P.O., read-out: Cmax) of the same compound?
A: 12300 ng/mL

Q: What about the t1/2 ([30]; 10 mg/kg I.V.) of the same compound?
A: 5.1 h

Q: And the CL ([30]; 10 mg/kg P.O.)?
A: 0.967 mL/min/kg

Q: And the Vss ([30]; 10 mg/kg P.O.)?
A: 0.446 L/kg

Q: What about the Cmax ([30]; 10 mg/kg P.O.) of the same compound?
A: 12280 ng/mL

Q: And the t1/2 ([30]; 10 mg/kg P.O.)?
A: 5.4 h

Q: What about the pIC50 [31] of the same compound?
A: 5.70

Q: What about the pIC50 [32] of the same compound?
A: < 5.00
